Publication PMC7959846, “Block of Voltage-Gated Sodium Channels by Atomoxetine in a State- and Use-dependent Manner” (Frontiers in Pharmacology, 2021)
Values joined by “and” are separate entries in the source; they are usually repeats but may differ in a detail not shown here. Equal values may be shown once.

Columns and labels:
hNav1.5 [1] = biological target: T1, hNav1.5 (Homo sapiens, UniProt Q14524); test: Use-dependent interaction (high frequency stimulation trains); conditions: for relative current amplitude of the 50th pulse related to the first pulse: 1 ms test pulse; for remaining current amplitude (use-dependence, pulse duration series): 10 Hz (Figure 9B)
Protocol: To investigate whether atomoxetine also interacts with the open channel, we first tested for a possible use-dependency. All these experiments were carried out at a holding potential of −140 mV and a test pulse to −20 mV with its duration set to 1 ms. This short activation time was chosen to minimize the time the channels spent in the inactivated state. After establishing stable baseline values using infrequent activations every 5 s (0.2 Hz) a train of high frequency stimulation (1, 3 10 Hz) was started. For evaluation, the peak current amplitude of each pulse was divided by the amplitude of the first response of the high frequency stimulation train. […] For quantification, the remaining current amplitudes of the 50th pulse were related to the first pulse. […] In order to analyse further if atomoxetine prefers an interaction with the open or fast inactivated state, we increased the test pulse duration up to a factor of 20.
FIGURE 9 Analysis for use-dependence at a pulsing frequency of 10 Hz (A) After establishing stable control responses (activations every 5 s), atomoxetine was preincubated for 20 s before test pulses (1 ms) were applied at a frequency of 10 Hz. […] The amplitudes which were obtained from the high frequency stimulation are related to the first pulse of each train.

hNav1.5 [2] = biological target: T1, hNav1.5; test: Voltage dependence of fast inactivation (500 ms prepulse); assay type: cell-based; design: expressed in transfected cells; host or cells: tsA201 (HEK-293 derivative); conditions: for net drug-induced shift of half maximal fast inactivation (signed): N = 5
Protocol: Constraint throughout: ∑i=1nai=1 .
For establishing inactivation curves, the membrane potential was stepped to different prepulse potentials (from −140 to −45 mV; increment 5 mV) for 500 ms before channel activations were carried out by depolarizations to −20 mV. For estimation of inactivation parameters, the normalized peak currents were plotted vs. the prepulse potentials. Inactivation curves, characterized by inactivation midpoints and the curve slope were obtained by data fitting using Eq. 4. […] After a second control, atomoxetine was applied at a concentration of 3 and 10 µM (Figure 4A) For final evaluation of drug effects, first the endogenous shift was estimated for each cell individually by the difference between the two controls. […] We used a cell-specific endogenous shift instead of a global shift, as the endogenous shift is highly variable between individual cells.
FIGURE 4 Voltage dependence of fast inactivation (A) Data of a representative measurement series of normalized peak currents in the absence and presence of atomoxetine are shown. Solid lines represent fits according to Eq. 4.

hNav1.5 [3] = biological target: T1, hNav1.5; test: Tonic block of hNav1.5 channels (resting state, holding potential −140 mV), whole-cell patch clamp in tsA201 cells; conditions: N = 5
Protocol: The tsA201 cell line is a derivative of the human embryonic kidney cell line HEK-293 (ATCC#CRL1537, Merck KGaA, Darmstadt, Germany). tsA201 cells were cultured at 37°C in a humidified atmosphere at 95% air and 5% CO2 in MEM (minimum essential medium, Gibco, Eggenstein, Germany) supplemented with 50 U/ml penicillin, 50 μg/ml streptomycin (Gibco), 2 mM L-glutamine (Boehringer, Mannheim, Germany), and 10% fetal calf serum (Gibco). The cells were grown on polyornithine-coated culture dishes to 40% confluency and transfected using the TransFectin LipidReagent kit (Bio-Rad, München, Germany).
Briefly, tsA201 cells were used for experiments 24–48 h after transfection. Membrane currents were recorded in the whole-cell recording mode using an EPC-9 amplifier and Patchmaster software (v2x73; HEKA, Lambrecht, Germany ([Hamill et al., 1981])). Before recording, cells were rinsed twice with an extracellular standard solution containing (in mM): 140 NaCl, 5 KCl, 1.5 CaCl2, 10 glucose and 12 HEPES; adjusted to a final pH of 7.3. Patch pipettes were drawn from borosilicate glass with tip resistances of about 2 MΩ when filled with (in mM): 125 CsF, 10 NaF, 1 MgCl2, 10 EGTA, 10 HEPES; adjusted to a final pH of 7.2. To improve sealing, tips were briefly dipped into 2% dimethylsilane dissolved in dichloromethane. Unless otherwise stated, cells were held at a holding potential of −140 mV from which channel activation was elicited by brief depolarizing pulses to −20 mV of 5 ms duration. To minimize voltage errors, the series resistance was compensated up to 80%. Cells with currents larger than 6 nA were excluded from evaluation.
The medium in the dish (1.5 ml) was continuously exchanged using a "global" bath perfusion with the inflow set to 4.5 ml/min and the outflow removing any excess fluid. Reagents were applied locally to the cells by the L/M-SPS-8 superfusion system (List, Darmstadt, Germany). Switching between the 8 channels of the superfusion system was controlled by magnetic valves. The local inlet (tip of an eight-barrelled pipette) was positioned at a distance of 50–100 μm upstream and the local outlet at about 300 μm downstream of the patch pipette. A constant flow rate of control and test solutions (1 ml/min) was achieved by means of a pressure control system (MPCU-3, Lorenz, Göttingen, Germany). The time of solution exchange was estimated from the changes in the liquid junction potential to be about 1 ms. If not otherwise stated, drugs were preapplied for 20 s before starting the experiments.
Concentration-inhibition curves for the estimation of Kr (IC50 at −140 mV; Figure 2) or Kapp (Figure 6) were fitted to the Hill equation ID/IC= 1/1+([D]/IC50)^n (1) ID and IC are the current amplitudes in the presence and absence of the drug (D). [D] is the concentration of the drug. […]

hNav1.5 [4] = biological target: T1, hNav1.5; test: Block development, interaction with the inactivated state: kinetic parameters (double-pulse protocol); conditions: for remaining current at the longest inactivation time: prepulse −20 mV up to 32 s
Excerpt: The time constant (τ) of block development for the different concentrations of atomoxetine was estimated by single exponential fits of the form: I/Imax = S+ a1*e^(−t/τ1) (7) t denotes the time, a is the fraction of channels which is blocked, and S represents the residual current.
Association (kon in µM^−1s^−1) and dissociation rates (koff in s^−1) were estimated from the slope and the y-intercept of a linear regression where the inverse of the fast time constants (1/τ) was plotted vs. the drug concentration [D] […] 1/τ= koff+kon*[D] (8) The affinity for the inactivated state (Ki) was calculated according to: Ki= koff/kon (9)
Instead of this, we employed another double-pulse protocol in order to determine the time dependence of the interaction of atomoxetine with the inactivated state. The experimental scheme consisted of a conditioning prepulse to −20 mV for a variable duration (range: 0.002–32 s), a short recovery for 100 ms at −140 mV, followed by the test pulse to −20 mV (inset to Figure 5A). […] For estimation of rate constants the inverse of the time constants (1/τ) were plotted vs. the concentration of atomoxetine (Figure 5C).
The pulse protocol (inset) was applied in intervals of 20 s. The peak currents of the test pulse were normalized to the peak amplitude of the prepulse and plotted vs. its duration. Solid lines represent fits of single exponential functions to data obtained for control (open squares) or different concentrations of atomoxetine (B) Data normalized with respect to control (C) The inverse of the time constants of individual cells were plotted vs. the concentration of atomoxetine. […] N = 5.

hNav1.5 [5] = biological target: T1, hNav1.5; test: Recovery from inactivation (double pulse protocols); assay type: cell-based; design: expressed in transfected cells; host or cells: tsA201 (HEK-293 derivative)
Excerpt: Current amplitudes were normalized to the maximum peak amplitude of INa in the absence and presence of atomoxetine. Recovery time constants were estimated from double or triple exponential fits according to: I/Imax = 1− a1*e^(−t/τ1) −a2*e^(−t/τ2)− a3*e^(−t/τ3) (10)
Recovery from inactivation was estimated with double pulse protocols using two different durations for the inactivating pulse: 500 ms and 10 s. The test pulse was applied after a variable time spent at the recovery potential of −140 mV (inset Figure 8). Using the short inactivation time of 500 ms, recovery occurred with two time constants. In the absence of atomoxetine about 90% of the channels recovered with a fast time constant (τ 1 = 2.2 ± 0.2 ms), representing recovering from fast inactivation. The remainder recovered with a slower time constant (τ 2 = 37.7 ± 15.6 ms), probably representing recovery from slow inactivation. In the presence of atomoxetine the time constant of the fast component was hardly extended whereas those of the slow time constant was prolongated with little or no change in the relative amount of the two components (Figure 8A, Table 2). […] Using an inactivation time of 10 s, recovery has to be fitted with triple exponential functions, separating the recovery process in a fast, intermediate and a slow component (Figure 8B). In the presence of atomoxetine a profound increase in all time constants resulted. Moreover, the component of the fast time constant decreased and that of the slow component increased in a concentration dependent manner while the amount of the intermediate component stayed almost constant (Table 3).
FIGURE 8 Recovery from inactivation (A) The relative amount of available channels after increasing duration of recovery at −140 mV is illustrated. Inactivation was performed at −20 mV for 500 ms. The pulse protocol is illustrated by the inset. Interval between individual measurements was 10 s and atomoxetine was applied at 3 and 10 µM. Solid lines represent fits with two exponential functions according to Eq. 10. (B) Otherwise identical protocol as in (A) but with the inactivation time set to 10 s. For data fitting, three exponentials were required. For fit parameters see Table 2, N = 5.

hNav1.5 [6] = biological target: T1, hNav1.5; test: Interaction with the inactivated state: steady-state concentration-response relationship
Protocol: Concentration-inhibition curves for the estimation of Kr (IC50 at −140 mV; Figure 2) or Kapp (Figure 6) were fitted to the Hill equation ID/IC= 1/1+([D]/IC50)^n (1) ID and IC are the current amplitudes in the presence and absence of the drug (D). [D] is the concentration of the drug. IC50 represents the concentration of the blocker that causes 50% inhibition and n is the Hill coefficient.
The affinity to the inactivated state (Ki) was calculated according to ([Bean et al., 1983]) as: 1/Kapp= h/Kr+ (1−h)/Ki (6) Kapp is the apparent affinity estimated at a selected membrane potential at which the amount of non-inactivated channels is given by h (estimated from the corresponding inactivation curve).
Activations were repeated several times at each concentration to achieve steady-state condition (Figure 6A). The holding potential was chosen individually for each cell to be around half maximal inactivation according to a preceding estimation of availability. Before the test pulse a short recovery (100 ms at −160 mV) was carried out (inset to Figure 6A). From the concentration relationship apparent half maximal effective concentrations (Kapp) were calculated using Eq. 1 (Figure 6B). The affinity for the inactivated channel was then calculated according to Eq. 6 which considers the varying amount of inactivated channels in individual experiments.
Activations were carried out every 30 s using a holding potential at which the channels were partly inactivated (relative amount of available channels in this experiment: h = 0.81). Immediately before the activations a short recovery (100 m s) at −160 mV was intercalated (inset). Activations were repeated at each condition until a near stable current amplitude was achieved. (B) The apparent IC50 (IC50app) was calculated from the concentration-dependent decline of the current amplitudes. The affinity to the inactivated state was calculated considering the current amount of available channels according to Eq. 6.

hNav1.5 [7] = biological target: T1, hNav1.5; test: Slow inactivation (10 s conditioning prepulse); conditions: slow inactivation fit (Eq. 5); for V50_1: N = 5
Protocol: Voltage dependence of activation was calculated in two steps: First, changes in driving force owing to the different test potentials were considered by calculating the conductance g according to g = I/V−ENa (2) Thereafter, normalized data were fitted with a Boltzmann equation of the form: g/gmax= 1/1+e^(V50 − V/k) (3) Voltage dependence of fast inactivation were fit using a Boltzmann equation of the form: I/Imax= 1/1+ e^(V − V50/k) (4) In case of slow inactivation Eq. 4 was extended by a second term and the additional parameter (S) which considers the steady-state level of the incomplete inactivation. I/Imax=(1−S)(a1/1+ e^(V− V501/k1)+ a2/1+ e^(V− V502/k2))+ S (5) Abbreviations used for voltage-dependent parameters: V and V50i are the actual membrane potentials and the potentials at which half maximal current (I)/conductance (g) occur, respectively. ENa indicates the reversal potential which was experimentally determined for each cell. The slope factors are given by ki and the relative amount of the individual terms are represented by ai. Constraint throughout: ∑i=1nai=1 .
In a next set of experiments, we directly investigated for a possible interaction with the slow inactivated state. To this end, similar experiments as shown in Figure 4 were conducted with the following deviations: the duration of the conditioning prepulse was set to 10 s, and a recovery period (100 ms) at −160 mV was inserted immediately before the test pulse to eliminate or minimize the contribution from fast-inactivation. […] Another hallmark for an interaction with the slow inactivated state is an ongoing increase in inhibition in the potential range (V50_2) where slow inactivation is expected to occur. In order to evaluate this we renormalized the data in the presence of atomoxetine with their respective control (Figure 7B).
FIGURE 7 Interaction with the slow-inactivated state (A) Infrequent (interval: 30 s) channel activations by step depolarisations to −20 mV were elicited after long lasting (10 s) conditioning prepulses to different potentials (inset). A short (100 ms) recovery period at −160 mV was inserted immediately before the test pulse. Data of normalized peak currents are plotted vs. the prepulse potential. Solid lines are fits according to Eq. 5 for control (open squares) and atomoxetine (3 µM) (filled symbols). […] (B) Plot of renormalized data was obtained by dividing the drug values by control values.

hNav1.5 [8] = biological target: T1, hNav1.5; test: Voltage dependence of activation, whole-cell patch clamp; assay type: cell-based; design: expressed in transfected cells; host or cells: tsA201 (HEK-293 derivative)
F1760C = tested on: F1760C; design: method as in Poulin et al., 2014; conditions: anaesthetic binding site; ref Poulin et al., 2014; cited from earlier work
WCW-mutant = tested on: WCW-mutant; design: method as in Poulin et al., 2014; conditions: ref Poulin et al., 2014; cited from earlier work
hNav1.5 [9] = biological target: T1, hNav1.5; design: expressed in transfected cells; host or cells: tsA201 (HEK-293 derivative); method as in Poulin et al., 2014; conditions: ref Poulin et al., 2014; cited from earlier work

T1 sequence (Q14524 whole entry): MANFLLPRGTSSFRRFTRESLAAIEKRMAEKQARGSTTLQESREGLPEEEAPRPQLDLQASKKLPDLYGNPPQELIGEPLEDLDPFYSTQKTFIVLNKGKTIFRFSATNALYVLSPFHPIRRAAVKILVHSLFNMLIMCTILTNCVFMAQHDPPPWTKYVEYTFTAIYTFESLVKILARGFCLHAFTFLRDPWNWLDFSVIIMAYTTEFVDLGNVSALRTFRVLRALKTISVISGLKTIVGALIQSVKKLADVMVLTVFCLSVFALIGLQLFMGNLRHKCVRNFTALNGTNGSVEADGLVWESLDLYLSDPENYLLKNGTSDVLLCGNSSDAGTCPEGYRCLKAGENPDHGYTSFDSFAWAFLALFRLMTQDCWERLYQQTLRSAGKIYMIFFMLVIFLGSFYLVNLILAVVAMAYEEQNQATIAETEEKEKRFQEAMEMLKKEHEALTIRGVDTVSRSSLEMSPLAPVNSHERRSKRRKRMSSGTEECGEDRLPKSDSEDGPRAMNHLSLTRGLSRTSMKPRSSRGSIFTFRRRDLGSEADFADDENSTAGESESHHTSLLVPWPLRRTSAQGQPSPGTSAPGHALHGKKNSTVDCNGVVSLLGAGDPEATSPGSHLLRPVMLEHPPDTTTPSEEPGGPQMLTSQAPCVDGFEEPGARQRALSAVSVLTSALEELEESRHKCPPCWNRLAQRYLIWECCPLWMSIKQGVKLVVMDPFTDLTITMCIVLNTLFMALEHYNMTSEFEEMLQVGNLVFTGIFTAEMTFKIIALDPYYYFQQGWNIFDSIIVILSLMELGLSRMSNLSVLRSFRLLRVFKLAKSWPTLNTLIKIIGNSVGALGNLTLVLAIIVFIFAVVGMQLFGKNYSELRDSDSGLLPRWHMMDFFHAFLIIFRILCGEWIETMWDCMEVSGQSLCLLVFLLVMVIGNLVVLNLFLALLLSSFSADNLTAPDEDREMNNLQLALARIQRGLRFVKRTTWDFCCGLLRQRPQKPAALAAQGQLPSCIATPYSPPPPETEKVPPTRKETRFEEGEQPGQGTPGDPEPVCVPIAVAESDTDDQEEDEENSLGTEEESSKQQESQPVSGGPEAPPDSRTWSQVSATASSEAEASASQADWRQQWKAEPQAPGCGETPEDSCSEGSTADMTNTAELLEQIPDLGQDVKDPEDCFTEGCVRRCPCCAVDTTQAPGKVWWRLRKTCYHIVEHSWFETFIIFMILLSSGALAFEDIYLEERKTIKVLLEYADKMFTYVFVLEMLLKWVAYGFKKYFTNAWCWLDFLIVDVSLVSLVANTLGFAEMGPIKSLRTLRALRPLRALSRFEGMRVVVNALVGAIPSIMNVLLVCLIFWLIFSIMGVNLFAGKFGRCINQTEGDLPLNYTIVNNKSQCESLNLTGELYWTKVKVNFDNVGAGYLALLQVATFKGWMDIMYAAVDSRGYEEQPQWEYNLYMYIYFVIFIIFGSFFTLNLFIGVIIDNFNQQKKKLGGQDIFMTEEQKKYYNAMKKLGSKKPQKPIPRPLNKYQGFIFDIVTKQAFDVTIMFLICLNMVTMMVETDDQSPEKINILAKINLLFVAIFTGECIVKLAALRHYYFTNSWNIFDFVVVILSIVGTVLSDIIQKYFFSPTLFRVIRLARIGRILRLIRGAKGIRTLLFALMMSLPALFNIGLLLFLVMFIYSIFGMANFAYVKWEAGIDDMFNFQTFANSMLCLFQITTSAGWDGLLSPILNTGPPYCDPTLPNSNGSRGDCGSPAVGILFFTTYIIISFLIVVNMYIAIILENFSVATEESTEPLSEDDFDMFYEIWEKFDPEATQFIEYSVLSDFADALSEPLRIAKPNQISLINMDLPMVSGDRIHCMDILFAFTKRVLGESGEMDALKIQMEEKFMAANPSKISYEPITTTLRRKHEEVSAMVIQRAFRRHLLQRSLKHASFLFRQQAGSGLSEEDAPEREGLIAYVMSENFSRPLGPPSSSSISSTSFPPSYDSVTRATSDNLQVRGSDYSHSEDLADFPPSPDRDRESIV

SMILES: CNCC[C@@H](Oc1ccccc1C)c1ccccc1 [atomoxetine]
- relative current amplitude of the 50th pulse related to the first pulse (hNav1.5 [1]; 1 Hz, 1 µM atomoxetine): 0.96 ± 0.01
- relative current amplitude of the 50th pulse related to the first pulse (hNav1.5 [1]; 1 Hz, 3 µM atomoxetine): 0.89 ± 0.05
- relative current amplitude of the 50th pulse related to the first pulse (hNav1.5 [1]; 1 Hz, 10 µM atomoxetine): 0.69 ± 0.09
- relative current amplitude of the 50th pulse related to the first pulse (hNav1.5 [1]; 3 Hz, 1 µM atomoxetine): 0.95 ± 0.02
- relative current amplitude of the 50th pulse related to the first pulse (hNav1.5 [1]; 3 Hz, 3 µM atomoxetine): 0.85 ± 0.07
- relative current amplitude of the 50th pulse related to the first pulse (hNav1.5 [1]; 3 Hz, 10 µM atomoxetine): 0.61 ± 0.09
- relative current amplitude of the 50th pulse related to the first pulse (hNav1.5 [1]; 10 Hz, 3 µM atomoxetine): 0.79 ± 0.03
- relative current amplitude of the 50th pulse related to the first pulse (hNav1.5 [1]; 10 Hz, 10 µM atomoxetine): 0.48 ± 0.07
- remaining current amplitude (use-dependence, pulse duration series) (hNav1.5 [1]; activation time 1 ms, 10 µM atomoxetine): 0.54 ± 0.03
- remaining current amplitude (use-dependence, pulse duration series) (hNav1.5 [1]; activation time 5 ms, 10 µM atomoxetine): 0.43 ± 0.03
- remaining current amplitude (use-dependence, pulse duration series) (hNav1.5 [1]; activation time 20 ms, 10 µM atomoxetine): 0.37 ± 0.09
- net shift in positive direction of fast inactivation midpoint (hNav1.5 [2]; 3 µM atomoxetine, 500 ms prepulse, corrected for endogenous shift): 0.3 mV
- net drug-induced shift of half maximal fast inactivation (signed) (hNav1.5 [2]; 3 µM atomoxetine): +0.3 mV
- negative shift of fast inactivation midpoint (net) (hNav1.5 [2]; 10 µM atomoxetine, 500 ms prepulse, corrected for endogenous shift): 0.9 mV
- net drug-induced shift of half maximal fast inactivation (signed) (hNav1.5 [2]; 10 µM atomoxetine): −0.9 mV
- IC50 (hNav1.5 [3]; half maximal effective concentration (Kr, IC50 at −140 mV; affinity for the resting state), drug preapplied 30 s): ~120000 nM and 120000 nM and 119000 nM
- Hill coefficient (hNav1.5 [3]; tonic block): 1.47 ± 0.06
- Ki (hNav1.5 [4]): 2570 nM
- remaining current at the longest inactivation time (hNav1.5 [4]; 3 µM atomoxetine, control 70.0 ± 14.0%): 32.6 ± 9.8%
- remaining current at the longest inactivation time (hNav1.5 [4]; 10 µM atomoxetine): 11.5 ± 8.0%
- time constant of block development (hNav1.5 [4]; 10 µM atomoxetine, single exponential fit, normalized to control): 4.3 ± 0.1 s
- kon (hNav1.5 [4]; read-out: rate constant for association (kon)): 18500 M⁻¹ s⁻¹
- koff (hNav1.5 [4]; read-out: rate constant for dissociation (koff)): 0.047 s⁻¹
- τ 1 (%) relative amount of component (hNav1.5 [5]; 3 µM, inactivation 10 s): 39.7 ± 2.2%
- τ 1 (recovery time constant) (hNav1.5 [5]; 3 µM, inactivation 10 s): 5.8 ± 0.7 ms
- τ 2 (%) relative amount of component (hNav1.5 [5]; 3 µM, inactivation 10 s): 22.7 ± 1.0%
- τ 2 (recovery time constant) (hNav1.5 [5]; 3 µM, inactivation 10 s): 139 ± 37.2 ms
- τ 3 (recovery time constant) (hNav1.5 [5]; 3 µM, inactivation 10 s): 3,524 ± 377 ms
- τ 1 (%) relative amount of component (hNav1.5 [5]; 3 µM, inactivation 500 ms): 90.3 ± 2.0%
- τ 2 (recovery time constant) (hNav1.5 [5]; 3 µM, inactivation 500 ms): 191.7 ± 74.2 ms
- τ 1 (recovery time constant) (hNav1.5 [5]; 3 µM, inactivation 500 ms, recovery at −140 mV): 3.1 ± 0.2 ms
- τ 1 (%) relative amount of component (hNav1.5 [5]; 10 µM, inactivation 10 s): 15.0 ± 1.6%
- τ 1 (recovery time constant) (hNav1.5 [5]; 10 µM, inactivation 10 s): 12.4 ± 0.3 ms
- τ 2 (%) relative amount of component (hNav1.5 [5]; 10 µM, inactivation 10 s): 17.2 ± 2.9%
- τ 2 (recovery time constant) (hNav1.5 [5]; 10 µM, inactivation 10 s): 417 ± 152 ms
- τ 3 (recovery time constant) (hNav1.5 [5]; 10 µM, inactivation 10 s): 4,859 ± 332 ms
- τ 1 (%) relative amount of component (hNav1.5 [5]; 10 µM, inactivation 500 ms): 86.2 ± 1.8%
- τ 1 (recovery time constant) (hNav1.5 [5]; 10 µM, inactivation 500 ms): 4.7 ± 0.3 ms
- τ 2 (recovery time constant) (hNav1.5 [5]; 10 µM, inactivation 500 ms): 1,259 ± 351 ms
- IC50 (hNav1.5 [6]; Half-maximal effective concentrations (interaction with inactivated state), different experimental settings, abstract): 2000 to 3000 nM
- Ki (hNav1.5 [6]; Ki (inactivated state), single experiment of Figure 6B, Eq. 6): 1850 nM
- Ki (hNav1.5 [6]; affinity for the inactivated state (Ki), calculated from Kapp by Eq. 6, holding potential around half maximal inactivation, N = 5): 1590 ± 450 nM
- IC50 (hNav1.5 [6]; apparent IC50 (IC50app), single experiment of Figure 6B, partly inactivated channels): 2270 nM
- higher affinity for the inactivated state compared to the resting state (hNav1.5 [6]; depending on the applied protocol): about 50 fold
- V50_2 (hNav1.5 [7]; 3 µM): −65.5 ± 2.8 mV
- a1 (hNav1.5 [7]; 3 µM): 37.5 ± 18.7%
- k1 (hNav1.5 [7]; 3 µM): 5.2 ± 0.4 mV
- k2 (hNav1.5 [7]; 3 µM): 31.8 ± 1.9 mV
- V50_1 (hNav1.5 [7]; 3 µM): −101.3 ± 0.3 mV
- V50_2 (hNav1.5 [7]; 10 µM): −102.7 ± 3.9 mV
- a1 (hNav1.5 [7]; 10 µM): 71.1 ± 19.7%
- k1 (hNav1.5 [7]; 10 µM): 5.9 ± 0.2 mV
- k2 (hNav1.5 [7]; 10 µM): 34.2 ± 4.7 mV
- V50_1 (hNav1.5 [7]; 10 µM): −107.7 ± 0.2 mV
- slope of the activation curve (hNav1.5 [8]; 3 µM atomoxetine): 6.6 ± 0.6 mV
- midpoint of the activation curve (half maximal activation) (hNav1.5 [8]; 3 µM atomoxetine, control −52.6 ± 3.5 mV): −54.5 ± 3.9 mV
- midpoint of the activation curve (hNav1.5 [8]; 10 µM atomoxetine): −55.5 ± 4.1 mV
- slope of the activation curve (hNav1.5 [8]; 10 µM atomoxetine): 6.9 ± 0.6 mV

SMILES: CNCCC(Oc1ccc(C(F)(F)F)cc1)c1ccccc1 (stereo not shown) [fluoxetine]
- ratio in affinity between F1760C and wildtype (F1760C): about 2 fold
- ratio for the interaction with the resting state (peak current) vs. open channel (late current) (WCW-mutant): 3 fold
- ratio of affinity at holding potential −140 mV (resting state) versus −90 mV (hNav1.5 [9]): less than 10 fold
